Test [1] concerns A2780S and A2780CP cells. As to the kind of experiment: Percent apoptotic nuclei after cisplatin treatment of transfected cells. In kind it is cell-based. The method, then: FIGS. 4(A)-(D) is a composite figure showing modulation of BAD-protein phosphorylation status influences cisplatin sensitivity. OVCA cell lines (A) A2780S and (B) A2780CP were transfected with Flag vectors expressing wild-type BAD (WT) or BAD harboring serine (S) to alanine point mutations in serine-112, -136, or -155(S112A, S136A, S155A). These S to A phosphorylation site mutations prevent phosphorylation of the BAD protein. Transfected cells were treated with vehicle or 1 μM (A2780S) or 10 μM (A2780CP) cisplatin for 48 hours and evaluated for the presence of apoptotic nuclei. (C) Western blot showing depletion of PP2C and PKA by siRNA. Controls included a non-targeting siRNA (NT). GAPDH was used as a loading control. (D) Percent apoptotic nuclei in A2780S cells in the presence of 1 μM cisplatin after siRNA depletion of PKA and PP2C. Error bars indicate standard error of the mean.
Morphologic assessment of condensed chromatin and fragmented DNA quantified percent apoptotic nuclei. Cells were fixed in 4% paraformaldehyde, and nuclei were stained with bis-benzimide trihydrochloride (0.5 μg/ml; Molecular Probes) and quantified using fluorescence microscopy (Marchion, et al., Synergistic interaction between histone deacetylase and topoisomerase II inhibitors is mediated through topoisomerase IIbeta. Clin Cancer Res 2005; 11:8467-8475).
Cells were transfected with siRNA drawn against different BAD pathway proteins. RNA duplexes for PP2C/PPM1A (s10909 from ABI), cAMP-dependent protein kinase (PKA; 6406 from Cell Signaling Technology, Inc., Danvers, Mass.), and vectors containing mutated BAD (pFlag-600) were transfected using the Nucleofector transfection kit, with non-targeting Silencer negative control #2 siRNA (Applied Biosystems, Inc., Foster City, Calif.), according to manufacturer's protocols (Amaxa GmbH, Koeln, Del.). The role of pBAD (serine-155) in cisplatin sensitivity was further evaluated in A2780S cells by depletion of PKA and PP2C/PPM1A using siRNA.

Test [2] deals with OVCA cell lines (A2780S, A2780CP, A2008, C13). Nature of the test: CellTiter-96 MTS proliferation assay quantifying cisplatin-resistance after serial cisplatin treatment. It counts as cell-based. The note with it: cells after serial in vitro cisplatin-treatment/expansion cycles vs cells prior to serial cisplatin treatment. The text has this:
FIGS. 3(A)-(D) are a series of graphs showing BAD-protein phosphorylation is associated with platinum resistance. Cisplatin EC50 so results and percent expression of phosphorylated-BAD at serine-155 (P-BAD155), non-phosphorylated BAD (NP-BAD155), total BAD, and PP2C (PPM1A) in (A) A2780S; (B) A2780CP; (C) A2008; and (D) C13 ovarian cancer cell lines measured by MTS and immunofluorescence, respectively.
Cell lines were induced for platinum resistance. […] Both cisplatin-resistance and genome-wide expression changes were measured serially in each cell line at baseline and after 3 and 6 cisplatin-treatment/expansion cycles. Cisplatin-resistance was quantified using CellTiter-96 MTS proliferation assays (Thermo Fisher Scientific Inc., Waltham, Mass.) and analyzed genome-wide expression using Affymetrix Human U133 Plus 2.0 GeneChips (Affymetrix, Inc., Santa Clara, Calif.) as previously described (Boren, et al., MicroRNAs and their target messenger RNAs associated with ovarian cancer response to chemotherapy. Gynecol Oncol 2009; 113:249-255; Bild, et al., Oncogenic pathway signatures in human cancers as a guide to targeted therapies. Nature 2006; 439:353-357) (Gene Expression Omnibus (GEO) accession number GSE23553).

Turning to `N.N.[Cl][Pt][Cl]` [cisplatin, cis-diammine-dichloroplatinum], the cisplatin-induced apoptosis entry is “increased cisplatin-induced apoptosis” in test [1] (A2780S and A2780CP transfected with BAD[S136A], BAD[S155A] vs wild-type BAD, 1 μM (A2780S) or 10 μM (A2780CP) cisplatin, 48 hours); “increased cisplatin-induced apoptosis” in test [1] (A2780S, siRNA depletion of PKA vs non-targeting control siRNA, 1 μM cisplatin); “decreased cisplatin-induced apoptosis” in test [1] (A2780S, siRNA depletion of PP2C/PPM1A, 1 μM cisplatin). Besides, the cisplatin sensitivity result in test [1] (cells transfected with BAD[S112A], 1 μM (A2780S) or 10 μM (A2780CP) cisplatin, 48 hours) is given as “no effect on cisplatin sensitivity”. Further, in test [2], the “cisplatin EC50” value is on record as “higher cisplatin EC50 values”.

The values above are taken from patent US9528982B2, “Bad phosphorylation determines ovarian cancer chemo-sensitivity and patient survival” (H. Lee Moffitt Cancer Center and Research Institute, Inc., priority 2011, dated 2016).
